In patent US7982038B2 (priority 2003, dated 2011):

Target: α7 nAChR subtype (Rattus norvegicus, UniProt Q05941)
Assay type: binding
Details: read-out: KD (saturation curve, one site model)

Sequence of α7 nAChR subtype (Q05941 23-502 limits assumed): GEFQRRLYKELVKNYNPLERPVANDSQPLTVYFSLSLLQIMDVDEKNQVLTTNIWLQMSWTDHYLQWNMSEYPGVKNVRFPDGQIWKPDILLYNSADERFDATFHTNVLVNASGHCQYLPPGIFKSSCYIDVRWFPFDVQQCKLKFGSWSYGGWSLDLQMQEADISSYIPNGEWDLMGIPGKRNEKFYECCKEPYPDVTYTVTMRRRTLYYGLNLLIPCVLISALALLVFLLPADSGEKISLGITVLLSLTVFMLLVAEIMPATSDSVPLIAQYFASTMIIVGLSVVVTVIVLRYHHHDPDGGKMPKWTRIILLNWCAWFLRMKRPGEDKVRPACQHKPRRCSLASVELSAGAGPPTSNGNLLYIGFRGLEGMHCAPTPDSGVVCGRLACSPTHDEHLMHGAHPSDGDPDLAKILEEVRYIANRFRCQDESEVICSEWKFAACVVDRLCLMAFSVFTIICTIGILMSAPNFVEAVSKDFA

[^125I]-α-Bungarotoxin [^125I-α-BTX]
Kd: 1.67 nM
